{
  "source": "paper PMC5218480",
  "about": "(PLoS ONE, 2017)",
  "test_system": "MV-4-11 cells",
  "assay": "Gene expression microarray analysis (Affymetrix PrimeView) and GSEA",
  "assay_type": "cell-based, human",
  "set-up": "RFU PODN (11730768_x_at) / Fold change /veh PODN (11730768_x_at) / RFU LINC00158 (11744669_a_at) / Fold change /veh LINC00158 (11744669_a_at) / RFU DUSP10 (11751237_a_at) / Fold change /veh DUSP10 (11751237_a_at) / RFU ID3 (11757404_x_at) / Fold change /veh ID3 (11757404_x_at) / RFU PLEKHG5 (11737974_s_at) / Fold change /veh PLEKHG5 (11737974_s_at) / RFU LRRC4B (11730491_at) / Fold change /veh LRRC4B (11730491_at) / RFU GIMAP4 (11747438_a_at) / Fold change /veh GIMAP4 (11747438_a_at) / RFU KRT8 (11758183_x_at) / Fold change /veh KRT8 (11758183_x_at) / RFU CNN1 (11734310_a_at) / Fold change /veh CNN1 (11734310_a_at) / RFU VPS37D (11726825_at) / Fold change /veh VPS37D (11726825_at) / RFU C10orf10 (11716522_x_at) / Fold change /veh C10orf10 (11716522_x_at) / RFU KIR2DL2 /// KIR2DL4 /// KIR2DL5A /// KIR2DL5B /// KIR2DS1 /// KIR2DS2 /// KIR2DS3 /// KIR2DS4 /// KIR3DL3 /// KIR3DL3 /// KIR3DS1 (11738374_at) / Fold change /veh KIR2DL2 /// KIR2DL4 /// KIR2DL5A /// KIR2DL5B /// KIR2DS1 /// KIR2DS2 /// KIR2DS3 /// KIR2DS4 /// KIR3DL3 /// KIR3DL3 /// KIR3DS1 (11738374_at) / RFU C1QL1 (11718748_at) / Fold change /veh C1QL1 (11718748_at) / RFU TMPRSS4 (11747572_a_at) / Fold change /veh TMPRSS4 (11747572_a_at) / RFU HAMP (11756126_x_at) / Fold change /veh HAMP (11756126_x_at) / RFU RNFT2 (11725882_a_at) / Fold change /veh RNFT2 (11725882_a_at) / RFU NR4A2 (11747474_a_at) / Fold change /veh NR4A2 (11747474_a_at) / RFU ABCC12 (11746883_a_at) / Fold change /veh ABCC12 (11746883_a_at) / RFU TMEM136 (11760407_x_at) / Fold change /veh TMEM136 (11760407_x_at) / RFU CLDN22 /// WWC2 (11732394_at) / Fold change /veh CLDN22 /// WWC2 (11732394_at) / RFU HLA-DPB1 (11760878_x_at) / Fold change /veh HLA-DPB1 (11760878_x_at) / RFU SPINT1 (11716480_a_at) / Fold change /veh SPINT1 (11716480_a_at) / RFU GAP43 (11754022_s_at) / Fold change /veh GAP43 (11754022_s_at) / RFU A4GNT (11735810_at) / Fold change /veh A4GNT (11735810_at) / RFU PRB3 (11715151_x_at) / Fold change /veh PRB3 (11715151_x_at) / RFU TUBB4B (11761932_at) / Fold change /veh TUBB4B (11761932_at) / RFU CAPN14 (11732068_a_at) / Fold change /veh CAPN14 (11732068_a_at) / RFU TMCC2 (11721928_a_at) / Fold change /veh TMCC2 (11721928_a_at) / RFU IRGQ (11745062_a_at) / Fold change /veh IRGQ (11745062_a_at) / RFU FAM174B (11720279_a_at) / Fold change /veh FAM174B (11720279_a_at) / RFU TMPRSS4 (11748680_a_at) / Fold change /veh TMPRSS4 (11748680_a_at) / RFU FAM212B (11763350_a_at) / Fold change /veh FAM212B (11763350_a_at) / RFU PLEKHG5 (11743358_a_at) / Fold change /veh PLEKHG5 (11743358_a_at) / RFU ZSCAN30 (11745921_a_at) / Fold change /veh ZSCAN30 (11745921_a_at) / RFU CMKLR1 (11741424_a_at) / Fold change /veh CMKLR1 (11741424_a_at) / RFU LOC101060620 /// MAPK8IP1 (11723275_at) / Fold change /veh LOC101060620 /// MAPK8IP1 (11723275_at) / RFU SPTSSB (11747773_x_at) / Fold change /veh SPTSSB (11747773_x_at) / RFU PRSS12 (11739890_at) / Fold change /veh PRSS12 (11739890_at) / RFU BIN1 (11741810_x_at) / Fold change /veh BIN1 (11741810_x_at) / RFU WNT11 (11732464_a_at) / Fold change /veh WNT11 (11732464_a_at) / RFU C10orf10 (11716521_a_at) / Fold change /veh C10orf10 (11716521_a_at) / RFU C5orf56 (11738089_at) / Fold change /veh C5orf56 (11738089_at) / RFU CYB561 (11721691_x_at) / Fold change /veh CYB561 (11721691_x_at) / RFU ANKRD19P (11752326_a_at) / Fold change /veh ANKRD19P (11752326_a_at) / RFU OR2T12 /// OR2T33 /// OR2T8 (11738714_s_at) / Fold change /veh OR2T12 /// OR2T33 /// OR2T8 (11738714_s_at) / RFU VCAN (11748164_a_at) / Fold change /veh VCAN (11748164_a_at) / RFU JSRP1 (11732532_at) / Fold change /veh JSRP1 (11732532_at) / RFU KRTAP10-11 (11738290_x_at) / Fold change /veh KRTAP10-11 (11738290_x_at) / RFU MYO3A (11730013_a_at) / Fold change /veh MYO3A (11730013_a_at) / RFU EBF3 (11725865_a_at) / Fold change /veh EBF3 (11725865_a_at) / RFU CAMK2N1 (11719241_x_at) / Fold change /veh CAMK2N1 (11719241_x_at) / RFU C5orf56 (11738088_a_at) / Fold change /veh C5orf56 (11738088_a_at) / RFU OLFML3 (11715873_a_at) / Fold change /veh OLFML3 (11715873_a_at) / RFU LOC100653217 /// NTM (11731650_a_at) / Fold change /veh LOC100653217 /// NTM (11731650_a_at) / RFU MAPK11 (11762145_a_at) / Fold change /veh MAPK11 (11762145_a_at) / RFU FIZ1 (11724087_x_at) / Fold change /veh FIZ1 (11724087_x_at) / RFU OASL (11726364_x_at) / Fold change /veh OASL (11726364_x_at) / RFU SOX15 (11748057_x_at) / Fold change /veh SOX15 (11748057_x_at) / RFU CD79A (11719716_a_at) / Fold change /veh CD79A (11719716_a_at) / RFU HIST1H1D (11736915_at) / Fold change /veh HIST1H1D (11736915_at) / RFU CASKIN2 (11723855_a_at) / Fold change /veh CASKIN2 (11723855_a_at) / RFU LOC730098 (11760151_x_at) / Fold change /veh LOC730098 (11760151_x_at) / RFU OR4N2 (11742367_at) / Fold change /veh OR4N2 (11742367_at) / RFU PRRT2 (11749266_a_at) / Fold change /veh PRRT2 (11749266_a_at) / RFU SNX32 (11753110_a_at) / Fold change /veh SNX32 (11753110_a_at) / RFU CDHR5 (11726645_a_at) / Fold change /veh CDHR5 (11726645_a_at) / RFU RCAN1 (11760418_a_at) / Fold change /veh RCAN1 (11760418_a_at) / RFU FAM167A (11723789_a_at) / Fold change /veh FAM167A (11723789_a_at) / RFU FAM26E (11764081_at) / Fold change /veh FAM26E (11764081_at) / RFU ISYNA1 (11749810_s_at) / Fold change /veh ISYNA1 (11749810_s_at) / RFU ACY1 (11761880_at) / Fold change /veh ACY1 (11761880_at) / RFU 11764098_at / Fold change /veh 11764098_at / RFU SAMD14 (11745864_x_at) / Fold change /veh SAMD14 (11745864_x_at) / RFU NPB (11741838_a_at) / Fold change /veh NPB (11741838_a_at) / RFU TMPRSS6 (11731388_a_at) / Fold change /veh TMPRSS6 (11731388_a_at) / RFU KRTAP10-2 (11738614_at) / Fold change /veh KRTAP10-2 (11738614_at) / RFU ARHGAP8 /// PRR5-ARHGAP8 (11727945_x_at) / Fold change /veh ARHGAP8 /// PRR5-ARHGAP8 (11727945_x_at) / RFU KRTAP5-7 /// NADSYN1 (11734609_at) / Fold change /veh KRTAP5-7 /// NADSYN1 (11734609_at) / RFU RASL12 (11751679_a_at) / Fold change /veh RASL12 (11751679_a_at) / RFU CDKN2B (11736163_a_at) / Fold change /veh CDKN2B (11736163_a_at) / RFU PRF1 (11729649_at) / Fold change /veh PRF1 (11729649_at) / RFU, ZNF638 /// ZNF638-IT1 / Fold change vs veh, ZNF638 /// ZNF638-IT1 / RFU, PANK3 / Fold change vs veh, PANK3 / RFU, SH3YL1 / Fold change vs veh, SH3YL1 / RFU, ZEB2 / Fold change vs veh, ZEB2 / RFU, NRIP1 / Fold change vs veh, NRIP1 / RFU, PTTG1IP / Fold change vs veh, PTTG1IP / RFU, CAPN2 / Fold change vs veh, CAPN2 / RFU, MED14 / Fold change vs veh, MED14 / RFU, SNORA58 / Fold change vs veh, SNORA58 / RFU, C1orf63 / Fold change vs veh, C1orf63 / RFU, LRRFIP1 / Fold change vs veh, LRRFIP1 / RFU, NDUFAF7 / Fold change vs veh, NDUFAF7 / RFU, SLC12A2 / Fold change vs veh, SLC12A2 / RFU, IBTK / Fold change vs veh, IBTK / RFU, ESF1 / Fold change vs veh, ESF1 / Fold change vs veh, TMEM50B / RFU, TAOK1 / Fold change vs veh, TAOK1 / RFU, ACBD3 / Fold change vs veh, ACBD3 / RFU, TMA16 / Fold change vs veh, TMA16 / RFU, RWDD3 / Fold change vs veh, RWDD3 / RFU, BCAT1 / Fold change vs veh, BCAT1 / RFU, EDEM3 / Fold change vs veh, EDEM3 / RFU, TMEM33 / Fold change vs veh, TMEM33 / RFU, WDR75 / Fold change vs veh, WDR75 / RFU, AHCTF1 / Fold change vs veh, AHCTF1 / RFU, TFRC / Fold change vs veh, TFRC / RFU, ZDHHC17 / Fold change vs veh, ZDHHC17 / RFU, NOM1 / Fold change vs veh, NOM1 / RFU, ARL8B / Fold change vs veh, ARL8B / RFU, ZBTB11 / Fold change vs veh, ZBTB11 / RFU, TAMM41 / Fold change vs veh, TAMM41 / RFU, KIAA1704 /// LOC100996395 / Fold change vs veh, KIAA1704 /// LOC100996395 / RFU, ING1 / Fold change vs veh, ING1 / RFU, TRMT61B / Fold change vs veh, TRMT61B / RFU, FUBP3 / Fold change vs veh, FUBP3 / RFU, TP53 / Fold change vs veh, TP53 / RFU, TNKS2 / Fold change vs veh, TNKS2 / RFU, ZFP14 / Fold change vs veh, ZFP14 / RFU, ACTR2 / Fold change vs veh, ACTR2 / RFU, PPP3R1 / Fold change vs veh, PPP3R1 / RFU, PIK3R1 / Fold change vs veh, PIK3R1 / RFU, HNRNPA1 / Fold change vs veh, HNRNPA1 / RFU, RNF170 / Fold change vs veh, RNF170 / RFU, ZNF28 / Fold change vs veh, ZNF28 / RFU, RNGTT / Fold change vs veh, RNGTT / RFU, OGT / Fold change vs veh, OGT / RFU, BRD1 / Fold change vs veh, BRD1 / RFU, MARS / Fold change vs veh, MARS / RFU, ZNF655 / Fold change vs veh, ZNF655 / RFU, FAHD1 / Fold change vs veh, FAHD1 / RFU, BDP1 / Fold change vs veh, BDP1 / RFU, LRRCC1 / Fold change vs veh, LRRCC1 / RFU, ARID1A / Fold change vs veh, ARID1A / RFU, ZNF146 / Fold change vs veh, ZNF146 / RFU, ZNF330 / Fold change vs veh, ZNF330 / RFU, GPN3 / Fold change vs veh, GPN3 / RFU, C9orf123 / Fold change vs veh, C9orf123 / RFU, N4BP2L2 / Fold change vs veh, N4BP2L2 / RFU, ARFIP1 / Fold change vs veh, ARFIP1 / RFU, FAM179B / Fold change vs veh, FAM179B / RFU, BCL10 / Fold change vs veh, BCL10 / RFU, UHRF1BP1L / Fold change vs veh, UHRF1BP1L / RFU, BET1 / Fold change vs veh, BET1 / RFU, CNOT2 / Fold change vs veh, CNOT2 / RFU, ZNF268 / Fold change vs veh, ZNF268 / Fold change vs veh, ZNF507 / RFU, DGCR2 / Fold change vs veh, DGCR2 / RFU, WDSUB1 / Fold change vs veh, WDSUB1 / Fold change vs veh, HSP90B1 /// MIR3652 / RFU, ADSS / Fold change vs veh, ADSS / RFU, GK / Fold change vs veh, GK / RFU, ZNF148 / Fold change vs veh, ZNF148 / RFU, TAF9 / Fold change vs veh, TAF9 / RFU, SLC1A5 / Fold change vs veh, SLC1A5 / RFU, SLMO2 / Fold change vs veh, SLMO2 / RFU, ABCC4 / Fold change vs veh, ABCC4 / RFU, LOC101060439 /// RAP1B / Fold change vs veh, LOC101060439 /// RAP1B / RFU, RFX7 / Fold change vs veh, RFX7 / RFU, GTPBP10 / Fold change vs veh, GTPBP10 / RFU, CNEP1R1 / Fold change vs veh, CNEP1R1 / RFU, BIVM-ERCC5 /// ERCC5 / Fold change vs veh, BIVM-ERCC5 /// ERCC5 / RFU, ILF3 / Fold change vs veh, ILF3 / RFU 11762660_at / Fold change /veh 11762660_at / RFU VCAN (11757783_s_at) / Fold change /veh VCAN (11757783_s_at) / RFU DDX43 (11728927_at) / Fold change /veh DDX43 (11728927_at) / RFU KRT8 (11758188_x_at) / Fold change /veh KRT8 (11758188_x_at) / RFU NKD1 (11759106_at) / Fold change /veh NKD1 (11759106_at) / RFU SRD5A1 (11742802_a_at) / Fold change /veh SRD5A1 (11742802_a_at) / RFU TPSAB1 /// TPSB2 (11721975_s_at) / Fold change /veh TPSAB1 /// TPSB2 (11721975_s_at) / RFU GSTM3 (11746129_a_at) / Fold change /veh GSTM3 (11746129_a_at) / RFU IL23R (11737362_x_at) / Fold change /veh IL23R (11737362_x_at) / RFU TMEM51 (11727254_a_at) / Fold change /veh TMEM51 (11727254_a_at) / RFU PIWIL2 (11732686_x_at) / Fold change /veh PIWIL2 (11732686_x_at) / RFU ORM1 (11744905_x_at) / Fold change /veh ORM1 (11744905_x_at) / RFU CCDC152 (11743942_at) / Fold change /veh CCDC152 (11743942_at) / RFU ECM1 (11717891_a_at) / Fold change /veh ECM1 (11717891_a_at) / RFU IL23R (11748794_a_at) / Fold change /veh IL23R (11748794_a_at) / RFU TNFAIP8L3 (11732012_x_at) / Fold change /veh TNFAIP8L3 (11732012_x_at) / RFU MBOAT4 (11741988_at) / Fold change /veh MBOAT4 (11741988_at) / RFU 11764193_at / Fold change /veh 11764193_at / RFU TMEM53 (11763286_at) / Fold change /veh TMEM53 (11763286_at) / RFU MAGEB2 (11727129_at) / Fold change /veh MAGEB2 (11727129_at) / RFU TMEM200A (11744735_a_at) / Fold change /veh TMEM200A (11744735_a_at) / RFU CCDC152 (11751479_a_at) / Fold change /veh CCDC152 (11751479_a_at) / RFU FAM211A (11726209_a_at) / Fold change /veh FAM211A (11726209_a_at) / RFU RGS16 (11746705_a_at) / Fold change /veh RGS16 (11746705_a_at) / RFU VCAN (11755009_s_at) / Fold change /veh VCAN (11755009_s_at) / RFU RHOB (11743442_s_at) / Fold change /veh RHOB (11743442_s_at) / RFU RGS16 (11720943_a_at) / Fold change /veh RGS16 (11720943_a_at) / RFU RGS16 (11720944_at) / Fold change /veh RGS16 (11720944_at) / RFU, VPS4B / Fold change vs veh, VPS4B / RFU, CREB1 / Fold change vs veh, CREB1 / RFU, DNAJC13 / Fold change vs veh, DNAJC13 / RFU, GNAQ / Fold change vs veh, GNAQ / RFU, CDK5R1 / Fold change vs veh, CDK5R1 / RFU, ZRANB3 / Fold change vs veh, ZRANB3 / RFU, CUL4A / Fold change vs veh, CUL4A / RFU, CCNY / Fold change vs veh, CCNY / RFU, UFL1 / Fold change vs veh, UFL1 / RFU, COG3 / Fold change vs veh, COG3 / RFU, DIAPH2 / Fold change vs veh, DIAPH2 / RFU, SKA2 / Fold change vs veh, SKA2 / RFU, AFF3 / Fold change vs veh, AFF3 / RFU, LMF1 / Fold change vs veh, LMF1 / RFU, IPO11 / Fold change vs veh, IPO11 / RFU, DFFB / Fold change vs veh, DFFB / RFU, FOXP1 / Fold change vs veh, FOXP1 / RFU, CARD8 / Fold change vs veh, CARD8 / RFU, STRN3 / Fold change vs veh, STRN3 / RFU, ADK / Fold change vs veh, ADK / RFU, RASSF2 / Fold change vs veh, RASSF2 / RFU, WIPF1 / Fold change vs veh, WIPF1 / RFU, LARP1B / Fold change vs veh, LARP1B / RFU, RASA1 / Fold change vs veh, RASA1 / RFU, RB1 / Fold change vs veh, RB1 / RFU, PPFIA1 / Fold change vs veh, PPFIA1 / RFU, MAT2A / Fold change vs veh, MAT2A / RFU, CCT5 / Fold change vs veh, CCT5 / RFU, WDR92 / Fold change vs veh, WDR92 / RFU, CUX1 / Fold change vs veh, CUX1 / RFU, TTC7A / Fold change vs veh, TTC7A / RFU, TMEM135 / Fold change vs veh, TMEM135 / RFU, DEPTOR / Fold change vs veh, DEPTOR / RFU, CPM / Fold change vs veh, CPM / RFU, DNAJB6 / Fold change vs veh, DNAJB6 / RFU, CACNA2D3 / Fold change vs veh, CACNA2D3 / RFU, DTX4 / Fold change vs veh, DTX4 / RFU, TFCP2 / Fold change vs veh, TFCP2 / RFU, GMCL1 /// GMCL1P1 / Fold change vs veh, GMCL1 /// GMCL1P1 / RFU, AEBP2 / Fold change vs veh, AEBP2 / RFU, SNHG1 /// SNORD22 /// SNORD25 /// SNORD26 /// SNORD27 /// SNORD28 /// SNORD29 /// SNORD31 / Fold change vs veh, SNHG1 /// SNORD22 /// SNORD25 /// SNORD26 /// SNORD27 /// SNORD28 /// SNORD29 /// SNORD31 / Fold change (Aza/veh), C12orf56 (ProbeSet 11735607_a_at) / Fold change (ACY-1035/veh), C12orf56 (ProbeSet 11735607_a_at) / Fold change (Aza/veh), FGFR1OP (ProbeSet 11751329_s_at) / Fold change (ACY-1035/veh), FGFR1OP (ProbeSet 11751329_s_at) / Fold change (Aza/veh), VPS36 (ProbeSet 11739960_a_at) / Fold change (ACY-1035/veh), VPS36 (ProbeSet 11739960_a_at) / RFU SYPL1 (11715823_x_at) / Fold change /veh SYPL1 (11715823_x_at) / RFU IGFBP7 (11715501_s_at) / Fold change /veh IGFBP7 (11715501_s_at) / RFU REEP3 (11722064_at) / Fold change /veh REEP3 (11722064_at) / RFU IGLL1 (11728026_x_at) / Fold change /veh IGLL1 (11728026_x_at): dose or concentration left out as unconfirmed",
  "conditions": "ProbeSet 11738335_x_at; LIST B",
  "data": [
    {"compound": "Nc1ccc(-c2cccs2)cc1NC(=O)c1ccc2c(c1)cc(C1CC1)n2CCN1CCOCC1", "note": "[ACY-1035]", "values": [
      {"measurement": "Fold change vs veh, TP53", "result": 0.84}
    ]}
  ]
}
